Source: PubChem BioAssay AID1963446 (Molecular Pharmacology Branch, DTP, NCI, 2024)
pIC50: −log10 of the molar value. Values joined by “and” are separate entries in the source; they are usually repeats but may differ in a detail not shown here. Equal entries are not always repeated.

Test system: 993429-296-R-J1-PDC complex spheroid growth, percent test/control
Assay: Anticancer human tumor 993429-296-R-J1-PDC patient-derived uterine sarcoma cell line growth inhibition [Asc]
Conditions: for viability, T/C: stronger effect = lower value; active means viability on the fitted dose curve at most 10% of control; inactive means the rest
Summary of the method: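 Tumor cells were grown as multicellular spheroids with stromal HUVEC and mesenchymal stem cells and treated singly or in combination. Concentrations fell in half-log steps from the clinical Cmax, or from 10 microM where none was known.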

[1] = curve of first compound, second compound 0.1 µM
[2] = curve of first compound, second compound 0.316 µM
[3] = curve of first compound, second compound 1 µM
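Further: spheroids exposed to compounds for seven days.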

NC(=O)C(=Cn1cnc(-c2cc(C(F)(F)F)cc(C(F)(F)F)c2)n1)c1cncnc1 + Cc1c(S(C)(=O)=O)c(-c2cc(F)cc(N3CCN(c4ccc(NS(=O)(=O)c5ccc(NC(CCN6CCC(C(=O)OCCCP(=O)(O)O)CC6)CSc6ccccc6)c(S(=O)(=O)C(F)(F)F)c5)cc4)CC3)c2)c(-c2ccc(Cl)cc2)n1C(C)C
8.25: pIC50 [2]
> 9.02: pIC50 [3]
active: viability, T/C (second compound 0.1 µM, first compound 0.0949 µM) 5.75% | viability, T/C (second compound 0.1 µM, first compound 0.3 µM) 1.24% | viability, T/C (second compound 0.316 µM, first compound 0.0949 µM) 2.18% | viability, T/C (second compound 0.316 µM, first compound 0.3 µM) 0.54% | viability, T/C (second compound 1 µM, first compound 0.03 µM) 9.81% | viability, T/C (second compound 1 µM, first compound 0.0949 µM) 1.61% | viability, T/C (second compound 1 µM, first compound 0.3 µM) 0.15% | viability, T/C (second compound 3.16 µM, first compound 0.0949 µM) 2.12% | viability, T/C (second compound 3.16 µM, first compound 0.3 µM) 0.26% | viability, T/C (second compound 10 µM, first compound 0.0949 µM) 1.63% | viability, T/C (second compound 10 µM, first compound 0.3 µM) 0.26%
inactive: viability, T/C (second compound 0.1 µM, first compound 0.000949 µM) 79.2% | viability, T/C (second compound 0.1 µM, first compound 0.003 µM) 63% | viability, T/C (second compound 0.1 µM, first compound 0.00949 µM) 50.8% | viability, T/C (second compound 0.1 µM, first compound 0.03 µM) 17.5% | viability, T/C (second compound 0.316 µM, first compound 0.000949 µM) 67% | viability, T/C (second compound 0.316 µM, first compound 0.003 µM) 59.9% | viability, T/C (second compound 0.316 µM, first compound 0.00949 µM) 41.4% | viability, T/C (second compound 0.316 µM, first compound 0.03 µM) 13.1% | viability, T/C (second compound 1 µM, first compound 0.000949 µM) 48.8% | viability, T/C (second compound 1 µM, first compound 0.003 µM) 48.6% | viability, T/C (second compound 1 µM, first compound 0.00949 µM) 32.4% | viability, T/C (second compound 3.16 µM, first compound 0.000949 µM) 50.8% | viability, T/C (second compound 3.16 µM, first compound 0.003 µM) 35.8% | viability, T/C (second compound 3.16 µM, first compound 0.00949 µM) 24.6% | viability, T/C (second compound 3.16 µM, first compound 0.03 µM) 11.9% | viability, T/C (second compound 10 µM, first compound 0.000949 µM) 75.6% | viability, T/C (second compound 10 µM, first compound 0.003 µM) 71.1% | viability, T/C (second compound 10 µM, first compound 0.00949 µM) 49.9% | viability, T/C (second compound 10 µM, first compound 0.03 µM) 13.7%
8.03: pIC50 (curve of first compound, second compound 10 µM)
8.10: pIC50 [1]
9.00: pIC50 (curve of first compound, second compound 3.16 µM)

C#Cc1c(F)ccc2cc(O)cc(-c3ncc4c(N5CC6CCC(C5)N6)nc(OCC56CCCN5CC(F)C6)nc4c3F)c12 (centres undefined) + CCN1C(C(=O)NC23CCC(C(=O)O)(CC2)CC3)C(c2cccc(Cl)c2F)C2(C(=O)Nc3cc(Cl)ccc32)C12CCCCC2
5.26: pIC50 (curve of first compound, second compound 0.3 µM)
5.31: pIC50 (curve of first compound, second compound 3 µM)
active: viability, T/C (second compound 0.03 µM, first compound 10 µM) 2.52% | viability, T/C (second compound 0.0949 µM, first compound 10 µM) 8.51% | viability, T/C (second compound 0.3 µM, first compound 10 µM) 5.39% | viability, T/C (second compound 0.949 µM, first compound 10 µM) 1.38%
5.29: pIC50 (curve of first compound, second compound 0.03 µM)
5.27: pIC50 (curve of first compound, second compound 0.0949 µM) | pIC50 (curve of first compound, second compound 0.949 µM)
inactive: viability, T/C (second compound 0.03 µM, first compound 0.0316 µM) 93.3% | viability, T/C (second compound 0.03 µM, first compound 0.1 µM) 96.5% | viability, T/C (second compound 0.03 µM, first compound 0.316 µM) 106% | viability, T/C (second compound 0.03 µM, first compound 1 µM) 84% | viability, T/C (second compound 0.03 µM, first compound 3.16 µM) 86.3% | viability, T/C (second compound 0.0949 µM, first compound 0.0316 µM) 96.1% | viability, T/C (second compound 0.0949 µM, first compound 0.1 µM) 95.4% | viability, T/C (second compound 0.0949 µM, first compound 0.316 µM) 83.8% | viability, T/C (second compound 0.0949 µM, first compound 1 µM) 115% | viability, T/C (second compound 0.0949 µM, first compound 3.16 µM) 86.2% | viability, T/C (second compound 0.3 µM, first compound 0.0316 µM) 87.8% | viability, T/C (second compound 0.3 µM, first compound 0.1 µM) 95.3% | viability, T/C (second compound 0.3 µM, first compound 0.316 µM) 90.3% | viability, T/C (second compound 0.3 µM, first compound 1 µM) 117% | viability, T/C (second compound 0.3 µM, first compound 3.16 µM) 92.2% | viability, T/C (second compound 0.949 µM, first compound 0.0316 µM) 104% | viability, T/C (second compound 0.949 µM, first compound 0.1 µM) 98.5% | viability, T/C (second compound 0.949 µM, first compound 0.316 µM) 107% | viability, T/C (second compound 0.949 µM, first compound 1 µM) 98.5% | viability, T/C (second compound 0.949 µM, first compound 3.16 µM) 89.8% | viability, T/C (second compound 3 µM, first compound 0.0316 µM) 100% | viability, T/C (second compound 3 µM, first compound 0.1 µM) 96.7% | viability, T/C (second compound 3 µM, first compound 0.316 µM) 96.6% | viability, T/C (second compound 3 µM, first compound 1 µM) 109% | viability, T/C (second compound 3 µM, first compound 3.16 µM) 73.5% | viability, T/C (second compound 3 µM, first compound 10 µM) 12.8%

NC1CCC(NC2CC2c2ccccc2)CC1 (centres undefined)
inactive: viability, T/C (compound 0.000316 µM) 72.9% and 80.7% and 109% | viability, T/C (compound 0.001 µM) 70.1% and 86.3% and 87% | viability, T/C (compound 0.00316 µM) 85.3% and 78.1% and 85.6% | viability, T/C (compound 0.01 µM) 78.4% and 94.6% and 91.1% | viability, T/C (compound 0.0316 µM) 68% and 88.5% and 86.8% | viability, T/C (compound 0.1 µM) 74.9% and 76.6% and 79.7%
< 7.00: pIC50 (curve of compound)

COc1c(OCCCN2CCOCC2)ccc2c3n(c(=NC(=O)c4cnc(N)nc4)nc12)CCN3
7.79% and 8.14% and 20.2%: viability, T/C (compound 0.1 µM)
7.70 and 7.67 and 7.50: pIC50 (curve of compound)
active: viability, T/C (compound 0.316 µM) 3.91% and 3.64% and 6.96% | viability, T/C (compound 1 µM) 1.4% and 1.43% and 2.5%
inactive: viability, T/C (compound 0.00316 µM) 91.3% and 101% and 95.5% | viability, T/C (compound 0.01 µM) 76.7% and 74.9% and 85.9% | viability, T/C (compound 0.0316 µM) 32.1% and 39% and 47.7%

C=CC(=O)N1CCN(c2nc(=O)n(-c3c(C)ccnc3C(C)C)c3nc(-c4c(O)cccc4F)c(F)cc23)C(C)C1 (centres undefined) + CNC(C)C(=O)NC1CN(S(=O)(=O)c2cccc(S(=O)(=O)N3CCC4CCC(C(=O)NC(c5ccccc5)c5ccccc5)N4C(=O)C(NC(=O)C(C)NC)C3)c2)CCC2CCC(C(=O)NC(c3ccccc3)c3ccccc3)N2C1=O
inactive: viability, T/C (second compound 0.01 µM, first compound 0.0316 µM) 58.3% | viability, T/C (second compound 0.01 µM, first compound 0.1 µM) 67.2% | viability, T/C (second compound 0.01 µM, first compound 0.316 µM) 71.1% | viability, T/C (second compound 0.01 µM, first compound 1 µM) 69.7% | viability, T/C (second compound 0.01 µM, first compound 3.16 µM) 75.1% | viability, T/C (second compound 0.01 µM, first compound 10 µM) 68.1% | viability, T/C (second compound 0.0316 µM, first compound 0.0316 µM) 58.9% | viability, T/C (second compound 0.0316 µM, first compound 0.1 µM) 65.8% | viability, T/C (second compound 0.0316 µM, first compound 0.316 µM) 66.2% | viability, T/C (second compound 0.0316 µM, first compound 1 µM) 49.3% | viability, T/C (second compound 0.0316 µM, first compound 3.16 µM) 62.8% | viability, T/C (second compound 0.0316 µM, first compound 10 µM) 61.2% | viability, T/C (second compound 0.1 µM, first compound 0.0316 µM) 56.7% | viability, T/C (second compound 0.1 µM, first compound 0.1 µM) 49.8% | viability, T/C (second compound 0.1 µM, first compound 0.316 µM) 62.8% | viability, T/C (second compound 0.1 µM, first compound 1 µM) 65% | viability, T/C (second compound 0.1 µM, first compound 3.16 µM) 59.9% | viability, T/C (second compound 0.1 µM, first compound 10 µM) 64.5% | viability, T/C (second compound 0.316 µM, first compound 0.0316 µM) 52.3% | viability, T/C (second compound 0.316 µM, first compound 0.1 µM) 48.6% | viability, T/C (second compound 0.316 µM, first compound 0.316 µM) 60.6% | viability, T/C (second compound 0.316 µM, first compound 1 µM) 55.9% | viability, T/C (second compound 0.316 µM, first compound 3.16 µM) 62.1% | viability, T/C (second compound 0.316 µM, first compound 10 µM) 59.5% | viability, T/C (second compound 1 µM, first compound 0.0316 µM) 51.7% | viability, T/C (second compound 1 µM, first compound 0.1 µM) 57.3% | viability, T/C (second compound 1 µM, first compound 0.316 µM) 61.5% | viability, T/C (second compound 1 µM, first compound 1 µM) 60.6% | viability, T/C (second compound 1 µM, first compound 3.16 µM) 59.2% | viability, T/C (second compound 1 µM, first compound 10 µM) 59%
< 5.00: pIC50 (curve of first compound, second compound 0.01 µM) | pIC50 (curve of first compound, second compound 0.0316 µM) | pIC50 [1] | pIC50 [2] | pIC50 [3]
